{
  "source": "ChEMBL document CHEMBL5352409",
  "about": "“Design, synthesis, and pharmacological evaluation of 2-(1-(1,3,4-thiadiazol-2-yl)piperidin-4-yl)ethan-1-ol analogs as novel glutaminase 1 inhibitors” (Eur J Med Chem, 2022)",
  "key": {"A549 [1]": {"system": "A549", "test": "Antiproliferative activity against human A549 cells assessed as reduction in cell viability", "assay_type": "functional, cell-based"}, "[2]": {"test": "Terminal half life in rat at 3 mg/kg, po", "assay_type": "ADME, organism-based", "conditions": "in vivo, read-out: beta t1/2 (converted)"}, "[3]": {"test": "Cmax in rat at 3 mg/kg, iv", "assay_type": "ADME, organism-based", "parameters": "dose 3 mg/kg, route iv", "conditions": "in vivo"}, "[4]": {"test": "Cmax in rat at 3 mg/kg, po", "assay_type": "ADME, organism-based", "parameters": "dose 3 mg/kg, route po", "conditions": "in vivo"}, "A549 [5]": {"system": "A549", "test": "Antitumor activity against human A549 cells xenografted in mouse model assessed as tumor growth inhibition at 100 mg/kg once daily via oral gavage administered for 28 days relative to control", "assay_type": "functional", "parameters": "scale not given: the % may be the effect or the level left", "conditions": "time 28 day"}, "A549 [6]": {"system": "A549", "test": "Induction of cell cycle arrest in human A549 cells assessed as accumulation at G1 phase incubated for 48 hrs by propidium iodide staining based flow cytometry analysis", "assay_type": "functional", "conditions": "dose 50-800 nM"}, "A549 [7]": {"system": "A549", "test": "Induction of cell cycle arrest in human A549 cells assessed as accumulation of cells at G0/G1 phase at 50 nM incubated for 48 hrs by propidium iodide staining based flow cytometry analysis (Rvb=61.61%)", "assay_type": "functional"}, "A549 [8]": {"system": "A549", "test": "Induction of cell cycle arrest in human A549 cells assessed as accumulation of cells at G0/G1 phase at 100 nM incubated for 48 hrs by propidium iodide staining based flow cytometry analysis (Rvb=61.61%)", "assay_type": "functional"}, "A549 [9]": {"system": "A549", "test": "Induction of cell cycle arrest in human A549 cells assessed as accumulation of cells at G2/M phase at 50 nM incubated for 48 hrs by propidium iodide staining based flow cytometry analysis (Rvb=23.88%)", "assay_type": "functional"}, "A549 [10]": {"system": "A549", "test": "Induction of cell cycle arrest in human A549 cells assessed as accumulation of cells at G2/M phase at 100 nM incubated for 48 hrs by propidium iodide staining based flow cytometry analysis (Rvb=23.88%)", "assay_type": "functional"}, "A549 [11]": {"system": "A549", "test": "Induction of cell cycle arrest in human A549 cells assessed as accumulation of cells at G2/M phase at 200 nM incubated for 48 hrs by propidium iodide staining based flow cytometry analysis (Rvb=23.88%)", "assay_type": "functional"}, "A549 [12]": {"system": "A549", "test": "Induction of cell cycle arrest in human A549 cells assessed as accumulation of cells at G2/M phase at 800 nM incubated for 48 hrs by propidium iodide staining based flow cytometry analysis (Rvb=23.88%)", "assay_type": "functional"}, "A549 [13]": {"system": "A549", "test": "Induction of cell cycle arrest in human A549 cells assessed as accumulation of cells at S phase at 100 nM incubated for 48 hrs by propidium iodide staining based flow cytometry analysis (Rvb=14.51%)", "assay_type": "functional"}, "A549 [14]": {"system": "A549", "test": "Induction of cell cycle arrest in human A549 cells assessed as accumulation of cells at S phase at 800 nM incubated for 48 hrs by propidium iodide staining based flow cytometry analysis (Rvb=14.51%)", "assay_type": "functional"}, "A549 [15]": {"system": "A549", "test": "Induction of apoptosis in human A549 cells assessed as early apoptotic cells at 1 uM incubated for 48 hrs by annexin V-FITC and propidium iodide based flow cytometry analysis (Rvb =12.289%)", "assay_type": "functional"}, "A549 [16]": {"system": "A549", "test": "Induction of apoptosis in human A549 cells assessed as late apoptotic cells at 5 uM incubated for 48 hrs by annexin V-FITC and propidium iodide based flow cytometry analysis (Rvb =9.696%)", "assay_type": "functional"}, "A549 [17]": {"system": "A549", "test": "Induction of apoptosis in human A549 cells assessed as late apoptotic cells at 10 uM incubated for 48 hrs by annexin V-FITC and propidium iodide based flow cytometry analysis (Rvb =9.696%)", "assay_type": "functional"}, "[18]": {"test": "Toxicity in human A549 cells xenografted in mouse assessed as body weight loss at 100 mg/kg administered via oral gavage for 28 days relative to control", "assay_type": "organism-based", "conditions": "in vivo, 672 h, time 28 day"}, "HCT-116": {"system": "HCT-116", "test": "Antitumor activity against human HCT-116 cells xenografted in mouse model assessed as reduction in tumor cells at 100 mg/kg administered via oral gavage for 28 days", "assay_type": "functional, organism-based", "conditions": "time 28.0 day"}},
  "note": "pIC50: −log10 of the molar value. Calls of active or inactive are those of the source. The rule behind the calls is not given here.",
  "data": [
    {"compound": "CCCCCCN1CCC(CNC(=O)c2cccc(COCCC3CCN(c4nnc(NC(=O)Cc5ccccc5)s4)CC3)c2)CC1", "values": [
      {"measurement": "pIC50", "setting": "A549 [1]", "result": 6.24},
      {"measurement": "half-life", "setting": "[2]", "result": 19.8, "unit": "h"},
      {"measurement": "Cmax", "setting": "[3]", "result": 699, "unit": "ng/mL"},
      {"measurement": "Cmax", "setting": "[4]", "result": 41.3, "unit": "ng/mL"},
      {"measurement": "Activity", "setting": "A549 [5]", "result": 40.9, "unit": "%"},
      {"measurement": "Activity", "setting": "A549 [6]", "result": "Dose-Dependent Effect"},
      {"measurement": "Activity", "setting": "A549 [7]", "result": 62.73, "unit": "%"},
      {"measurement": "Activity", "setting": "A549 [8]", "result": 64.94, "unit": "%"},
      {"measurement": "Activity", "setting": "A549 [9]", "result": 24.1, "unit": "%"},
      {"measurement": "Activity", "setting": "A549 [10]", "result": 17.3, "unit": "%"},
      {"measurement": "Activity", "setting": "A549 [11]", "result": 19.72, "unit": "%"},
      {"measurement": "Activity", "setting": "A549 [12]", "result": 19.67, "unit": "%"},
      {"measurement": "Activity", "setting": "A549 [13]", "result": 17.76, "unit": "%"},
      {"measurement": "Activity", "setting": "A549 [14]", "result": 11.77, "unit": "%"},
      {"measurement": "Activity", "setting": "A549 [15]", "result": 14.845, "unit": "%"},
      {"measurement": "Activity", "setting": "A549 [16]", "result": 16.368, "unit": "%"},
      {"measurement": "Activity", "setting": "A549 [17]", "result": 68.08, "unit": "%"},
      {"measurement": "Activity", "setting": "[18]", "result": "Non-Toxic"},
      {"measurement": "Activity", "setting": "HCT-116", "result": "Active"}
    ]}
  ]
}
